Experimental data: BigSolDB 2.1

N[C@@H](Cc1ccccc1)C(=O)O
solubility (mole fraction)
Conditions | 283.15 K | 288.15 K | 293.15 K | 298.15 K | 303.15 K | 308.15 K | 313.15 K | 318.15 K | 323.15 K
in isopropanol | 4.14e-05 | 5.16e-05 | 6.41e-05 | 7.29e-05 | 9.54e-05 | 0.00011 | 0.000122 | 0.00015 | 0.000178
in methanol | 0.000742 | 0.000807 | 0.000866 | 0.000937 | 0.000996 | 0.00105 | 0.00112 | 0.00119 | 0.00126
in methyl acetate | 4.3e-06 | 8.5e-06 | 1e-05 | 1.49e-05 | 1.93e-05 | 3.27e-05 | 4.41e-05 | 5.46e-05 | 6.4e-05
in n-butanol | 5.9e-06 | 8.4e-06 | 9.8e-06 | 2.2e-05 | 3.48e-05 | 4.72e-05 | 5.85e-05 | 8.5e-05 | 0.000104
in n-propanol | 2.83e-05 | 2.99e-05 | 3.34e-05 | 4.63e-05 | 5.58e-05 | 6.44e-05 | 8.96e-05 | 0.000141 | 0.000187
in water | 0.00274 | 0.00289 | 0.00307 | 0.00321 | 0.00342 | 0.0036 | 0.00379 | 0.00404 | 0.00433
